One assay concerns fos. The assay is described as follows: fos / c-fos mRNA expression in chondrocytes (Northern blot). Type of assay: cell-based, bovine. The settings on record: stimulus alone; H2 O2 30, 60 and 90 minutes; IL-1, PMA or AA (3 μM) 1 hour. The protocol: (§1) The cytokine interleukin 1 (IL 1) has been used to identify the intermediate second messengers which regulate the expression of fos and jun.
In order to elucidate this possibility, the effect of DPI on fos and jun mRNA levels induced by IL 1 was investigated. RNA from chondrocytes treated with IL 1 in the presence and absence of DPI were analyzed by Northern blot analysis using either fos or collagenase cDNA probes.
Since superoxides are rapidly converted to hydrogen peroxide in the cell by superoxide dismutase, whether hydrogen peroxide could mimic the effect of IL 1 in the induction of fos expression was investigated. RNA was extracted from chondrocytes (Kandel et al. supra) treated with H2 O2 for 30, 60 and 90 minutes and examined by Northern blot analysis using a fos cDNA probe.
Bovine articular chondrocytes were isolated and plated as previously described (Kandel R. A. et al. Biochim. Biophys. Acta. 1053, 130-134, 1990). […] The amount of ^3 H-AA liberated into the supernatant was determined. To measure PGE2 production, chondrocytes were incubated for 6 hours in Ham's F12 medium, either alone or with IL 1 or PMA. […] In order to examine the expression of c-fos and c-jun, chondrocytes were incubated for 1 hour in the presence of IL-1, PMA or AA (3 μM). Chondrocytes were washed in PBS and the total RNA extracted as previously described (Cruz. et al, 1991, Biochem. J. 277, 327-330). RNA samples were run on formaldehyde agarose gels and transferred to nylon membrane for northern analysis using cDNA probes for c-fos and c-jun.
The RNA was extracted and examined by Northern blot analysis using cDNA probes for c-fos and collagenase.

The test system of the next assay is jun. The assay is described as follows: jun / c-jun mRNA expression in chondrocytes (Northern blot). The class given is cell-based, bovine. To be noted: stimulus alone, 1 hour.
Description: as §1
Although IL 1 stimulated superoxide production, it was not known whether IL 1 induced fos and jun expression was dependent on the production of superoxides. In order to elucidate this possibility, the effect of DPI on fos and jun mRNA levels induced by IL 1 was investigated. RNA from chondrocytes treated with IL 1 in the presence and absence of DPI were analyzed by Northern blot analysis using either fos or collagenase cDNA probes. […] Similar data has been obtained for IL 1 induced jun expression. Furthermore, inhibition of fos and jun expression by DPI was sufficient to suppress IL 1 induced and constitutive collagenase expression.
The effect of orthovanadate and N-acetylcysteine on fos, jun and collagenase expression were examined. Bovine articular chondrocytes were isolated and plated as previously described (Kandel R. A. et al. Biochim. Biophys. Acta. 1053, 130-134, 1990). In order to determine the effect of orthovanadate on IL 1 and PMA (phorbol ester) induced responses, chondrocytes were incubated with orthovanadate (100 μM) for 2 hours before stimulation with IL 1 (10 ng/ml) or PMA ([…]). Collagenase production was determined by incubating chondrocytes for 24 hours with IL 1 or PMA and the cell conditioned medium was assayed for collagenase activity using an ELISA procedure as described previously (Kandel et al. supra). PLA2 activity was measured by incorporating ^3 H-arachidonic acid (^3 H-AA) into the cells and then incubating the cells with medium containing 1 mg/ml BSA, either alone or in the presence of IL 1 or PMA, for 10 min. as previously described (Conquer, J. A. […], Biochim. Biophys. Acta. 1134, 1-6). The amount of ^3 H-AA liberated into the supernatant was determined. […] The supernatant was analyzed by RIA using an antibody specific for PGE2 (Dr. S. A. Jones, Mount Sinai Hospital, Toronto, Canada). […]

The test system of another assay is carcinogenesis. To be noted: G. Shklar et al.; cited from earlier work.
Another assay relates to c-fos. The assay can be described thus: TNFα and bFGF induced c-fos mRNA in chondrocytes (Northern blot). Type of assay: cell-based, bovine. To be noted: 100 μM, 2 hours preincubation. How it is done: Chondrocyte cultures were stimulated with H2 O2 (100 μM) at different time points as indicated. […] Chondrocyte cultures were preincubated with NAC (30 mM) or Asc (100 μM) for 2 hours before the addition of bFGF (10 ng/ml) or TNFα (30 ng/ml) for 30 minutes. Both human recombinant TNFα and bFGF were dissolved in phosphate buffered saline with 0.1% bovine serum albumin. NAC and Asc were first dissolved in Ham's F12 medium containing 5% (v/v) fetal bovine serum, then neutralized with sodium hydroxide. Total RNA from bovine articular chondrocytes was isolated and the c-fos mRNA levels were determined by Northern blot analysis as described herein. The blots were subsequently stripped of DNA and re-probed with ^32 p-labelled rat β tubulin cDNA.
Chondrocyte cultures were pretreated with DPI (2 μM) for 30 minutes before the addition of TNFα (30 ng/ml) or bFGF (10 ng/ml) for 30 minutes. Measurements of c-fos and tubulin mRNA levels were as described in Example 11.

In another assay the test system is collagenase. The assay can be described thus: collagenase production by chondrocytes (ELISA). The class given is cell-based, bovine. To be noted: stimulus alone, 24 hours. The protocol:
The effect of orthovanadate and N-acetylcysteine on fos, jun and collagenase expression were examined. Bovine articular chondrocytes were isolated and plated as previously described (Kandel R. A. et al. Biochim. Biophys. Acta. 1053, 130-134, 1990). In order to determine the effect of orthovanadate on IL 1 and PMA (phorbol ester) induced responses, chondrocytes were incubated with orthovanadate (100 μM) for 2 hours before stimulation with IL 1 (10 ng/ml) or PMA ([…]). Collagenase production was determined by incubating chondrocytes for 24 hours with IL 1 or PMA and the cell conditioned medium was assayed for collagenase activity using an ELISA procedure as described previously (Kandel et al. supra). PLA2 activity was measured by incorporating ^3 H-arachidonic acid (^3 H-AA) into the cells and then incubating the cells with medium containing 1 mg/ml BSA, either alone or in the presence of IL 1 or PMA, for 10 min. as previously described (Conquer, J. A. […], Biochim. Biophys. Acta. 1134, 1-6). The amount of ^3 H-AA liberated into the supernatant was determined. To measure PGE2 production, chondrocytes were incubated for 6 hours in Ham's F12 medium, either alone or with IL 1 or PMA. The supernatant was analyzed by RIA using an antibody specific for PGE2 (Dr. S. A. Jones, Mount Sinai Hospital, Toronto, Canada). In order to examine the expression of c-fos and c-jun, chondrocytes were incubated for 1 hour in the presence of IL-1, PMA or AA (3 μM). Chondrocytes were washed in PBS and the total RNA extracted as previously described (Cruz. et al, 1991, Biochem. J. 277, 327-330). RNA samples were run on formaldehyde agarose gels and transferred to nylon membrane for northern analysis using cDNA probes for c-fos and c-jun.
In general terms: ELISA stands for enzyme-linked immunosorbent assay.

A further assay concerns PLA2. The assay can be described thus: release of 3H-arachidonic acid from chondrocytes (PLA2 activity). The class given is cell-based, bovine. The settings on record: stimulus alone, 10 min. The protocol: (§2) The effect of orthovanadate and N-acetylcysteine on fos, jun and collagenase expression were examined. Bovine articular chondrocytes were isolated and plated as previously described (Kandel R. A. et al. Biochim. Biophys. Acta. 1053, 130-134, 1990). In order to determine the effect of orthovanadate on IL 1 and PMA (phorbol ester) induced responses, chondrocytes were incubated with orthovanadate (100 μM) for 2 hours before stimulation with IL 1 (10 ng/ml) or PMA ([…]). Collagenase production was determined by incubating chondrocytes for 24 hours with IL 1 or PMA and the cell conditioned medium was assayed for collagenase activity using an ELISA procedure as described previously (Kandel et al. supra). PLA2 activity was measured by incorporating ^3 H-arachidonic acid (^3 H-AA) into the cells and then incubating the cells with medium containing 1 mg/ml BSA, either alone or in the presence of IL 1 or PMA, for 10 min. as previously described (Conquer, J. A. […], Biochim. Biophys. Acta. 1134, 1-6). The amount of ^3 H-AA liberated into the supernatant was determined. To measure PGE2 production, chondrocytes were incubated for 6 hours in Ham's F12 medium, either alone or with IL 1 or PMA. The supernatant was analyzed by RIA using an antibody specific for PGE2 (Dr. S. A. Jones, Mount Sinai Hospital, Toronto, Canada). […]

The next assay deals with PGE2. The assay is described as follows: PGE2 production by chondrocytes (RIA). Type of assay: cell-based, bovine. The settings on record: stimulus alone, 6 hours. The protocol:
as §2

The next assay relates to KB8, KB8-5 and KB85-11. To be noted: stated as background; cited from earlier work.
The test system of a further assay is P388 (WT). The assay can be described thus: MTT cytotoxicity assay, P388 (WT). The class given is cell-based, murine. To be noted: Mus musculus, P388, 72 h, read-out: IC50 Value. How it is done:
(§3) The relative cytotoxicity of various compounds on tumor cell lines was investigated as follows. Cytotoxicity was measured by the MTT microculture tetrazolium colorimetric assay for all cell lines. The relative cytotoxicity of Na3 VO4 and VOSO4 was investigated using the following tumor cell lines: P388(WT) murine leukemia, P388 (ADR) murine leukemia, Lewis murine lung, MCF7 (WT) human breast, […] human lung, K562 human erythroleukemia, A431 human epidermal, LS180 human colon and SK-OV-3 human ovarian. The relative cytotoxicity of doxorubicin, Na3 VO4 and VOSO4 was investigated using the following tumor cell lines: P388(WT) murine leukemia, P388 (ADR) murine leukemia, MCF7(WT) human breast and MCF7 (ADR) human breast. The relative cytotoxicity of BMOV, BEOV and naglivan was investigated using the following tumor cell lines: P388(WT) murine leukemia, P388 (ADR) murine leukemia, Lewis murine lung, H460 human lung, K562 human erythroleukemia, and SK-OV-3 human ovarian.
(§4) The cells were plated (number of cells/well was different from cell line to cell depending on the dividing rate) in a 96-well microculture plate 24 hours prior to the delivery of the vanadium compounds. Serial concentrations of solutions of the test compounds (0.05-100 μM) were delivered to the corresponding wells. A blank column (without cells) and a control column (with cells without vanadium) were left. The cells were incubated for 72 hours continuously. An MTT solution was added to each well after this incubation period and the cells were incubated for 4 more hours for the completion of the dyeing process. The medium was removed find DMSO was added to each well. The absorbance of each well was read with a Titertek Multiskan (310C) spectrophotometer at 570 nm. The percentage of the absorbance of each vanadium concentration relative to the control calculated and the value of the 50% growth inhibition concentration (IC50) was obtained from the % control versus concentration plot. Each assay was repeated three times and the reported IC50 values were the mean of these three runs.
(Tetrazolium assays rely on reduction of a dye to a coloured formazan, in cell work by metabolically active cells.)

A further assay deals with MCF7 (WT). The assay is described as follows: MTT cytotoxicity assay, MCF7 (WT). Type of assay: cell-based, human. The settings on record: Homo sapiens, MCF7, 72 h, read-out: IC50 Value. The protocol: as §3, §4
The test system of a further assay is P388 (ADR). The assay can be described thus: MTT cytotoxicity assay, P388 (ADR). The class given is cell-based, murine. The settings on record: Mus musculus, P388/ADR, 72 h, read-out: IC50 Value. How it is done: as §3, §4
The test system of a further assay is MCF7 (ADR). The assay can be described thus: MTT cytotoxicity assay, MCF7 (ADR). Type of assay: cell-based, human. The settings on record: Homo sapiens, NCI/ADR-RES, 72 h, read-out: IC50 Value. The protocol: as §3, §4
The test system of the next assay is chondrocytes. The assay is described as follows: TNFα and bFGF induced ROS production in chondrocytes (DHR fluorescence). The settings on record: 4 hours in the presence of DHR. The class given is cell-based. The protocol:
With time, DHR by itself caused a shift in fluorescence to the right as shown in panels a to c. A dotted line was drawn through the mean fluorescence intensity of the control (panel c) with DHR alone for 4 hours. After incubation with TNFα or bFGF for 4 hours in the presence of DHR, there was a further shift in logarithmic fluorescence intensity as indicated in panel d or f. In panels e and g, DPI abolished the fluorescent shift stimulated by TNPα and bFGF respectively.

Regarding `CCCCC/C=C\C/C=C\C/C=C\C/C=C\CCCC(=O)O` [AA, arachidonic acid], the “stimulation of fos / c-fos expression” value in the assay on fos is reported as “stimulated”. The “stimulation of c-jun expression” value with jun is given as “stimulated”.

On to `O=C1O[C@H]([C@@H](O)CO)C(O)=C1O` [Asc, ascorbic acid], for which the anticancer activity entry in the assay on carcinogenesis is “anticancer activity”. The “inhibition of TNFα and bFGF induced c-fos mRNA levels” value in the assay with c-fos was “inhibit”.

Consider `CCCCCCCCCCCCCC(=O)O[C@@H]1[C@@H](C)[C@@]2(O)[C@@H](C=C(CO)C[C@]3(O)C(=O)C(C)=C[C@@H]23)[C@@H]2C(C)(C)[C@]12OC(C)=O` [PMA, reference compound], for which the “stimulation of fos / c-fos expression” value in the assay with fos was “stimulated”. The “induction of collagenase production” value in the assay on collagenase is on record as “induced”. The “induction of 3H-AA release” value in the assay with PLA2 is listed as “induced”. For the same compound, in the assay with jun, the “stimulation of c-jun expression” value was “stimulated”. Further, the “induction of PGE2 production” value with PGE2 is on record as “induced”.

Regarding `COc1cc2c(c(OC)c1OC)-c1ccc(OC)c(=O)cc1[C@@H](NC(C)=O)CC2` [colchicine], the “killing of drug resistant cell lines by conventional chemotherapeutic agents” value (“killing of drug resistant cell lines” below) in the assay with KB8, KB8-5 and KB85-11 is recorded as “not killed”.

In the case of `COc1cccc2c1C(=O)c1c(O)c3c(c(O)c1C2=O)C[C@@](O)(C(=O)CO)C[C@@H]3O[C@H]1C[C@H](N)[C@H](O)[C@H](C)O1` [doxorubicin, reference compound], the IC50 (in general, the midpoint of a concentration-inhibition curve) with P388 (WT) came out at 23 nM; in the assay on MCF7 (WT), 492 nM; with P388 (ADR), 3770 nM; in the assay with MCF7 (ADR), 25700 nM. Moreover, the “killing of drug resistant cell lines” value in the assay on KB8, KB8-5 and KB85-11 is “not killed”.

For `CC[C@]1(O)C[C@@H]2CN(CCc3c([nH]c4ccccc34)[C@@](C(=O)OC)(c3cc4c(cc3OC)N(C)[C@H]3[C@@](O)(C(=O)OC)[C@H](OC(C)=O)[C@]5(CC)C=CCN6CC[C@]43[C@@H]65)C2)C1` [vinblastine], in the assay with KB8, KB8-5 and KB85-11, the “killing of drug resistant cell lines” value was “not killed”.

TNFα: the “shift in logarithmic fluorescence intensity (ROS production)” value in the assay on chondrocytes is on record as “further shift”.

As for bFGF: human recombinant bFGF, the “shift in logarithmic fluorescence intensity (ROS production)” value in the assay on chondrocytes is recorded as “further shift”.

The values above are taken from patent US5871779A, “Treatment of arthropathies with vanadate compounds or analogues thereof” (Mount Sinai Hospital Corporation, priority 1996, dated 1999).
